Assay results reported in ChEMBL document CHEMBL1201862, “PubChem BioAssay data set” (2004).
The source made the active and inactive calls. For most assays here, no stated cut-off is given here; in the data, actives have a measured EC50 and inactives only a lower limit.

Tests used:
[1] = cells; type: functional, cell-based
[2] = cells; type: functional, cell-based; remark: listed apart in the source
[3] = biological target: Luciferin 4-monooxygenase (Photinus pyralis, UniProt P08659); test: inhibition of purified Photinus pyralis luciferase – biochemical, luminescence, dose response (AID 1891)
[4] = Luminescence Cell-Based Dose Confirmation HTS to Identify Inhibitors of Platelet Dense Granule Release. [Related pubchem assays: 1663 (Primary HTS), 1678 (Summary of Project)]; type: functional
[5] = microbe, parasite or virus in culture; type: functional; settings: Mycobacterium tuberculosis
[6] = tested on: H9c2; test: cells; type: functional, cell-based; settings: Rattus norvegicus, H9c2, Myocardium;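 further: confirmatory concentration-response retest of ultra-high-throughput screening hits for modulation of myocardial damage; cell death induced by hydrogen peroxide oxidative stress; compound pretreatment for 60 min then peroxide exposure for 2 h; potency is for protecting the cells against peroxide damage rather than for killing them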
[7] = biological target: Paired box protein Pax-8 (Homo sapiens, UniProt Q06710); test: PAX8 transcriptional activity inhibition in RMG-I – RMG-I cells, luciferase, cherry-pick, dose response (AID 687027); type: functional, cell-based;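 further: luciferase reporter driven by Pax8 target thyroperoxidase promoter measured by SteadyGlo luminescence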
[8] = OVCAR8 cell viability loss – plate reader, dry powder samples, PAX8 project, dose response (AID 743197); type: functional, cell-based; settings: OVCAR-8
[9] = biological target: T1, RNA-binding protein pos-1 (Caenorhabditis elegans, UniProt G5EF15); test: disruptors of C. elegans POS-1 RNA interaction – biochemical, fluorescence polarization, dose response (AID 1964);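 further: purified POS-1 fused to maltose binding protein made in E. coli; potency of compounds blocking POS-1 binding to fluorescent RNA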
T1 sequence (G5EF15 whole entry): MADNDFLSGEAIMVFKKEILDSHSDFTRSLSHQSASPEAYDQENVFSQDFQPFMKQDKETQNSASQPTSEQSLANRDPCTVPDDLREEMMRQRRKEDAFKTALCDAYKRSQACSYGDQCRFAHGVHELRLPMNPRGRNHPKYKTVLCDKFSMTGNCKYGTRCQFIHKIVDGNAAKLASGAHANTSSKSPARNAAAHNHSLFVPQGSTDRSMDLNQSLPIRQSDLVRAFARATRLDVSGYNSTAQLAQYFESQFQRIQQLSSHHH

[10] = biological target: T2, Zinc finger protein mex-5 (Caenorhabditis elegans, UniProt Q9XUB2); test: potency of MEX-5 RNA-binding blockers – biochemical, C. elegans, fluorescence polarization, dose response (AID 1960)
T2 sequence (Q9XUB2 whole entry): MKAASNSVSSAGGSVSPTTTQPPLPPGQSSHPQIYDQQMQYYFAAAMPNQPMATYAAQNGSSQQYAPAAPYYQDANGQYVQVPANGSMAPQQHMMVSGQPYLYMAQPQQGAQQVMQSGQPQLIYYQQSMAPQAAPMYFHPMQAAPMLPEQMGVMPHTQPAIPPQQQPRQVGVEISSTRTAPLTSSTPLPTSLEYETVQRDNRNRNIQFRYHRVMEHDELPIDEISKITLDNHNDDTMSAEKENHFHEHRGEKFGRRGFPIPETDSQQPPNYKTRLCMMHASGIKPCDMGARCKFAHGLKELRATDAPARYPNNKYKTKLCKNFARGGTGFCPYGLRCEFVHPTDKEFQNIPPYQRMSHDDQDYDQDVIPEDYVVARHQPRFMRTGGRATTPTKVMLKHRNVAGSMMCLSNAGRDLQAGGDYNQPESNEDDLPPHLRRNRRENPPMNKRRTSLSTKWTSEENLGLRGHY

[11] = Luminescence Cell-Based Dose Confirmation HTS to Identify Activators of 5'UTR Stem-Loop Driven Alpha-Synuclein mRNA Translation in H4 Neuroglioblastoma Cells. [Related pubchem assays: 1829 (Project Summary), 1814 (Primary HTS)]; type: functional
[12] = Luminescence Cell-Based Dose Response HTS to Identify Activators of Luciferase Translation or Activity in H4 […] Cells. [Related pubchem assays: 1829 (Project Summary), 1814 (Primary HTS)]; type: functional
[13] = tested on: H4; test: Luminescence Cell-Based Dose Response HTS to Identify Activators of 5'UTR Stem-Loop Driven Prion Protein mRNA Translation in H4 Neuroglioblastoma Cells. [Related pubchem assays: 1829 (Project Summary), 1814 (Primary HTS)]; type: functional; settings: Homo sapiens
[14] = biological target: T3, Fatty acid synthase (Homo sapiens, UniProt P49327); test: inhibition of human FAS-TE enzyme activity – biochemical, endpoint fluorescence intensity, uHTS hits, dose response (AID 624327); type: functional;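 further: fluorescence from hydrolysis of an O-methyl fluorescein acyl ester substrate by the enzyme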
[15] = biological target: T3, Fatty acid synthase; test: inhibition of human FAS-TE enzyme activity – biochemical, kinetic fluorescence intensity, dose response (AID 624326); type: functional;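 further: rate of fluorescence rise from hydrolysis of a fluorogenic O-methyl fluorescein ester substrate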
[16] = biological target: T4, Heat shock factor protein 1 (Mus musculus, UniProt P38532); test: decrease of HSF1-responsive luciferase luminescence – cell-based, NIH3T3, dose retest, confirmation (AID 2382); type: functional;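 further: NIH3T3 fibroblasts with HSF1-driven luciferase reporter stressed by proteasome inhibitor MG132; luminescence from HSF1-driven luciferase expression after 8 hours of MG132 stress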
T4 sequence (P38532 whole entry): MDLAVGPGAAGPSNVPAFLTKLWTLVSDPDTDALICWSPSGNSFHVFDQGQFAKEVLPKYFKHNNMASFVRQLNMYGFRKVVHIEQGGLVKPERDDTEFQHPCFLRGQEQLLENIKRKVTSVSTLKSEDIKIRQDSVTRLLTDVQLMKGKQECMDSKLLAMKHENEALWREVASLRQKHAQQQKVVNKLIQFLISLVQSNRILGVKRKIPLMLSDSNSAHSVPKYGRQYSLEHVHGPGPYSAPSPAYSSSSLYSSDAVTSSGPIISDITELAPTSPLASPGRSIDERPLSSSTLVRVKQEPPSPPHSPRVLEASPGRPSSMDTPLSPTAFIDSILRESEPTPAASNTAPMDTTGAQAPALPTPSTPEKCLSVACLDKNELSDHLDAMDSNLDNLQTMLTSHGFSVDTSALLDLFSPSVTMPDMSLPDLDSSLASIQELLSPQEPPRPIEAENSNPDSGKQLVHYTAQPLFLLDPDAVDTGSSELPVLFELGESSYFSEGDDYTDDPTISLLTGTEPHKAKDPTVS

T3 sequence (P49327 whole entry): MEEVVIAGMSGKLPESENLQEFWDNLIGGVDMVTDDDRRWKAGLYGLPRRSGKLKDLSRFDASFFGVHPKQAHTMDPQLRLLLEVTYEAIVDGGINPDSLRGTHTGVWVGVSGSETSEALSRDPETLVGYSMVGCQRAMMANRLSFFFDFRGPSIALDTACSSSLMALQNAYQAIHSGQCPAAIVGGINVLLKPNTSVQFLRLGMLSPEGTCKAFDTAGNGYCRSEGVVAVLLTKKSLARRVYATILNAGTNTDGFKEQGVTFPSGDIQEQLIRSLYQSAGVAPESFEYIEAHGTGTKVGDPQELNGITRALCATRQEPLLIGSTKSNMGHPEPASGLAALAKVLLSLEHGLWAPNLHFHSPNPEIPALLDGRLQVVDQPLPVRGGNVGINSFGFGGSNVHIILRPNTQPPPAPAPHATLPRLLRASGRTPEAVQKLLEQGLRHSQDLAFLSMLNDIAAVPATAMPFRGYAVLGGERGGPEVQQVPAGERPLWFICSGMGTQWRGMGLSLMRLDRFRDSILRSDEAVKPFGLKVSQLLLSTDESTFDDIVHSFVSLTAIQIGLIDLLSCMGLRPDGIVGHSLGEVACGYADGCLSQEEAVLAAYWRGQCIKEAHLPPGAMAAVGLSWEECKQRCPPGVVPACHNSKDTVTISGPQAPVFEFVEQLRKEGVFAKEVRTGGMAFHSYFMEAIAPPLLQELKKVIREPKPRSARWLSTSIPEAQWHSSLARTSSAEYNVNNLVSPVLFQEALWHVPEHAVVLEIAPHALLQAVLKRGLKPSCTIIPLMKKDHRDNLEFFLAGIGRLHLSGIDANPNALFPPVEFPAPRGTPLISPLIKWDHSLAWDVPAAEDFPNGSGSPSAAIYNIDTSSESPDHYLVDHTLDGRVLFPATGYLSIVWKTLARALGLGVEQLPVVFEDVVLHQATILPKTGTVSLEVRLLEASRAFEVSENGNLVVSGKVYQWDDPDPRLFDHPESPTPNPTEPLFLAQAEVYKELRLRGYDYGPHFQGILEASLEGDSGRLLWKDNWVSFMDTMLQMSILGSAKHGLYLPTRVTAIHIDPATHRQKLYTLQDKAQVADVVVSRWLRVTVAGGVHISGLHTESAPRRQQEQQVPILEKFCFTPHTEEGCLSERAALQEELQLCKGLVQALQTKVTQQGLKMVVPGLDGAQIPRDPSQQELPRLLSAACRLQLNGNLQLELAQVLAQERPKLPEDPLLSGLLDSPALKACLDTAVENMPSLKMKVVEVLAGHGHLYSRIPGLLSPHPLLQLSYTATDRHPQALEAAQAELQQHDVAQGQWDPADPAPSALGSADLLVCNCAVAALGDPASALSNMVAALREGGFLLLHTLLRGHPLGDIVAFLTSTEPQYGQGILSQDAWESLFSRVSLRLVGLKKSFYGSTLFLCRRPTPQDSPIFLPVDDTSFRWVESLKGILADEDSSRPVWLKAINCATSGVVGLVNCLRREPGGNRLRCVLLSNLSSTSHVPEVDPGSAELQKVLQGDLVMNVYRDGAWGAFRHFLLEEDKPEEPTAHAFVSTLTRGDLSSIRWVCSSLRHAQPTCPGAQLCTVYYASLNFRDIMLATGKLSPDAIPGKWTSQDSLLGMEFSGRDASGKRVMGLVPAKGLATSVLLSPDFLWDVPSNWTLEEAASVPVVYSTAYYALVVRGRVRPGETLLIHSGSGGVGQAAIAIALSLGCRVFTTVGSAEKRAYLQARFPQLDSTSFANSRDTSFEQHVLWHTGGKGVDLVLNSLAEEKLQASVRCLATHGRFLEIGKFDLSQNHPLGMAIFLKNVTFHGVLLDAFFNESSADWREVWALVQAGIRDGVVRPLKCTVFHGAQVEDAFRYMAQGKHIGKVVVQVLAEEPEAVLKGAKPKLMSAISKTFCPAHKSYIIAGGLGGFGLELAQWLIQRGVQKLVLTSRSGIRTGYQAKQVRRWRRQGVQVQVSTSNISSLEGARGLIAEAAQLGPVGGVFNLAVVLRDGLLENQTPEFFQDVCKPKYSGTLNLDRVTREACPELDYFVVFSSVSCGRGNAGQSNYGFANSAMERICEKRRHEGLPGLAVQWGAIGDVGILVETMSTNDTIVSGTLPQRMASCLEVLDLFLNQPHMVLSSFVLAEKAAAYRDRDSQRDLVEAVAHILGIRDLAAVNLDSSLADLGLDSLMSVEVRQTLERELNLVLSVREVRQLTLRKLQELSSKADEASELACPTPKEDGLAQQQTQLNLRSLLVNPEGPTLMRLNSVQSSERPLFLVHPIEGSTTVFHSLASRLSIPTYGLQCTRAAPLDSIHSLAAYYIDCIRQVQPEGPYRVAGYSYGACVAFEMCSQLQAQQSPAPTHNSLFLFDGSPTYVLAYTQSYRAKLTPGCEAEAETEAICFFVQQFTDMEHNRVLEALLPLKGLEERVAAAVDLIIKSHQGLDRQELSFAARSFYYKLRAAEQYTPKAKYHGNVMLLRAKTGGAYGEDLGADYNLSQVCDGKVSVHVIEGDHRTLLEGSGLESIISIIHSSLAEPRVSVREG
Chain of Luciferin 4-monooxygenase (P08659 whole entry): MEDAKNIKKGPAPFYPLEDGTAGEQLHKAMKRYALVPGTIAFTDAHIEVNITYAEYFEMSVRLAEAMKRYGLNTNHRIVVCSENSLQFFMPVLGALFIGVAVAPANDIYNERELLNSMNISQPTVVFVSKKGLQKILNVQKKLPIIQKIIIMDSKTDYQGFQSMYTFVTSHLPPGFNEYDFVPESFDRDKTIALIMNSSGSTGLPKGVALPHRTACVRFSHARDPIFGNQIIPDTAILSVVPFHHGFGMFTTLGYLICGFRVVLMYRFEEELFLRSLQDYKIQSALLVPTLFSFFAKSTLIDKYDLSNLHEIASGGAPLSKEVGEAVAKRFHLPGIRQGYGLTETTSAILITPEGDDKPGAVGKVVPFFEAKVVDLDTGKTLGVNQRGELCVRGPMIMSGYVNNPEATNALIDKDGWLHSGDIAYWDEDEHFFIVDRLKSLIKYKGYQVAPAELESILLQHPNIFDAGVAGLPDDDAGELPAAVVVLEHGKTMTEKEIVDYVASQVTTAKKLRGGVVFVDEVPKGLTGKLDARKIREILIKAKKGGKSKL
Chain of Paired box protein Pax-8 (Q06710 whole entry): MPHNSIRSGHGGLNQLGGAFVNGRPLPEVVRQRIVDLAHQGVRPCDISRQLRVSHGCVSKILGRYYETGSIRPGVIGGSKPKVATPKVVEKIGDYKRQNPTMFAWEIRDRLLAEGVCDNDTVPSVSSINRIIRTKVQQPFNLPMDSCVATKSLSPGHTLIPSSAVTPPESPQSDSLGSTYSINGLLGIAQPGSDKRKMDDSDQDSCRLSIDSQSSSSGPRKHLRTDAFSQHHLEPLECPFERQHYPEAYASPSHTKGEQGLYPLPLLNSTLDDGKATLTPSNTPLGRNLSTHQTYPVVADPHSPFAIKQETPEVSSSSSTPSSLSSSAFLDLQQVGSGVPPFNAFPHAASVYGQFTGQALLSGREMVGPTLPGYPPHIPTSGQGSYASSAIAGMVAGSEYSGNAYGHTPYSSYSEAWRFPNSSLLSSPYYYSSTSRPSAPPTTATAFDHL

SMILES: COc1ccc(NC(=O)CCS(=O)(=O)c2ccc3c(c2)CCN3C(C)=O)cc1
- EC50 [1]: > 350 µM (not active)
- EC50 [2]: > 350 µM (not active)

SMILES: O/N=C1/C2C3CC4C5C3C1C5C1(OCCO1)C42 (stereo not given)
- EC50 [1]: > 350 µM (not active)
- EC50 [2]: > 350 µM (not active)

SMILES: CCOc1ccc(N2CC(C(=O)NCCc3ccc(OC)c(OC)c3)CC2=O)cc1 (stereo not given)
- EC50 [3]: > 112 µM (not active)
- EC50 [4]: 36.1 µM (active)

SMILES: Cc1ccc(NS(=O)(=O)c2cccc(C(=O)N3CCCCCC3)c2)cc1
- EC50 [3]: > 112 µM (not active)
- EC50 [4]: > 112 µM (not active)

SMILES: Cc1cc(-n2c(C)cc(C(=O)COc3ccc4ccc(=O)oc4c3)c2C)no1
- CC50 [5]: > 40 µM (active)
- IC50 [6]: 24.7 µM (active)

SMILES: CN1c2ccc(C3=CCCCC3)cc2[C@H]2[C@H](CCN2C(=O)NC2CCCCC2)[C@@H]1CO
- AC50 [7]: 12.3 µM (active)
- AC50 [8]: > 70 µM (inactive)

SMILES: CCCn1c(O)c(C#N)c(C)c(CN2CCCCC2)c1=O
- EC50 [9]: > 300 µM (inconclusive)
- EC50 [10]: > 300 µM (not active)

SMILES: C[C@@H]1CN([C@@H](C)CO)C(=O)c2c(c3ccccc3n2C)-c2ccccc2CO[C@H]1CN(C)S(=O)(=O)c1cccc(F)c1
- AC50 [7]: 13.7 µM (active)
- AC50 [8]: 46.4 µM (active)

SMILES: CCOC(=O)c1ccc(/N=C2\C(=S)N(c3ccc(C(=O)OCC)cc3)C(=N)N2/N=C/c2ccccc2)cc1
- CC50 [5]: > 40 µM (active)

SMILES: OCCC#Cc1ccc(CN2CCN(Cc3ccccc3)C(CCO)C2)cc1 (stereo not given)
- EC50 [1]: > 350 µM (not active)
- EC50 [2]: > 350 µM (not active)

SMILES: O=C(Nc1ccc(NC(=O)C2CC2)nc1)c1cccc(F)c1
- EC50 [11]: 13.1 µM (active)
- EC50 [12]: 11.2 µM (active)
- EC50 [13]: > 120 µM (not active)

SMILES: CC1CCN(Cc2nc(-c3ccccc3)no2)CC1
- EC50 [11]: 0.272 µM (active)
- EC50 [12]: < 0.1 µM (active)
- EC50 [13]: 25.8 µM (active)

SMILES: CCC1Oc2ccccc2N(CC(=O)Nc2ccccc2OC)C1=O (stereo not given)
- EC50 [1]: > 350 µM (not active)
- EC50 [2]: > 350 µM (not active)

SMILES: O=C1CSC(N/N=C/c2cccs2)=N1
- EC50 [9]: > 300 µM (not active)
- EC50 [10]: > 300 µM (not active)

SMILES: O=C(Cn1cc([N+](=O)[O-])ccc1=O)NCC1COc2ccccc2O1 (stereo not given)
- IC50 [14]: 10.1 µM (active)
- IC50 [15]: 11.5 µM (active)

SMILES: Cn1ncc(Cl)c1C(=O)N/N=C/c1cccc(OC2CSC2)c1
- EC50 [9]: > 300 µM (not active)
- EC50 [10]: > 300 µM (not active)

SMILES: Cc1cc(C)c(C#N)c(SC[S+]([O-])Cc2ccc(Cl)cc2)n1 (stereo not given)
- IC50 [14]: 5.88 µM (active)
- IC50 [15]: 5.54 µM (active)

SMILES: O=C(COC(=O)c1cc([N+](=O)[O-])ccc1N1CCOCC1)Nc1cccc(F)c1
- IC50 [14]: 1.1 µM (active)
- IC50 [15]: 0.917 µM (active)

SMILES: O=C(O)/C=C\C(=O)Nc1ccccc1C#Cc1ccc(Br)cc1
- EC50 [11]: 114 µM (active)
- EC50 [12]: 19.7 µM (active)
- EC50 [13]: 7.95 µM (active)

SMILES: CC1(C)Cc2c(C#N)c(SCCC#N)nc(N3CCOCC3)c2CO1
- EC50 [1]: > 350 µM (not active)
- EC50 [16]: > 195 µM (not active)
- EC50 [2]: > 350 µM (not active)

SMILES: O=C(Nc1ccc(C(=O)O)cc1)/C(=C\c1ccc([N+](=O)[O-])cc1)NC(=O)c1ccc(Br)cc1
- IC50 [14]: 2.05 µM (active)
- IC50 [15]: 1.21 µM (active)
